This is an account of results in patent publication US4236015A, “1-(2-Acylaminophenyl)imidazoles” (Westwood Pharmaceuticals, Inc., priority 1979, dated 1980).

The subject of assay [1] is cell-mediated immune response to the antigen, Mycobacterium tuberculosis H37Ra. The assay is described as follows: Delayed hypersensitivity test. As to conditions: for D.H.S. (ED60): s.c., mice, 60% reduction of edema of cell-mediated immune response vs control. Type of assay: in vivo, mouse. As to the method:
The immunosuppressant activities of the compounds of this invention were determined via the hemolysin test in mice and by the delayed hypersensitivity test. The hemolysin test used is that described in Methods in Immunology, edited by D. H. Campbell et al, W. A. Benjamin, New York 1963 pages 172-175, and measures humeral or antibody response. The delayed hypersensitivity test measures the effect of a test compound on the ability of a subject mouse to mount a cell-mediated immune response to the antigen, Mycobacterium tuberculosis H37Ra. The mouse is sensitized to the antigen by subcutaneous administration in the base of the tail. The development of the delayed hypersensitivity response may be measured at any time beginning six days after sensitization but is usually done on the ninth day as follows: The right hind paw is injected with purified protein derivative (tuberculin) while the left hind paw (control) receives physiological saline. Both paw volumes are measured after twenty-four hours and significant increase in the volume of the right hind paw is taken as a measure of an effective delayed hypersensitivity response. All compounds were administered by the subcutaneous route.
The D.H.S. (ED60) mg./kg. s.c. value appearing in column 3 is an expression of the effectiveness of the drug in reducing the edema that accompanies the cell-mediated immune response. It is a measure of the number of milligrams per kilogram of body weight of the drug administered subcutaneously which is required to reduce the edema of the cell-mediated immune response by 60% when compared to the control.

Assay [2] concerns humeral or antibody response. In words: Hemolysin test in mice. Type of assay: in vivo. As to conditions: s.c., 50% reduction of antibody activity vs control.
In assay [3] the test system is Trichophyton mentagrophytes. The assay is described as follows: Antifungal activity, agar dilution method. It counts as cell-based, Trichophyton mentagrophytes (ATCC No. 8757 and 9129). As to the method: (§1) Various compounds of this invention display antifungal and anti-yeast activity.
(§2) In Table IX below are listed the antifungal activity of a number of compounds encompassed in the present invention. These were determined by the agar dilution method as described in Chapters 2 and 3 of Methods in Microbiology, Vol. 7B, edited by J. R. Norris and D. W. Ribbons, Academic Press, New York, 1972.

The test system of assay [4] is T. agelloi. In words: Antifungal activity, agar dilution method. It counts as cell-based, Trichophyton ajelloi. As for the experimental part:
as §1, §2

Assay [5] relates to rat paw edema. In words: Rat paw edema assay, oral dosing. It counts as in vivo. As to conditions: 4 hours. As to the method:
(§3) The anti-inflammatory activity of representative compounds of this invention was determined by the rat paw edema assay both by local administration (Table XI below) and by oral dosing (Table XII below). For the oral dosing, the procedure of C. A. Winter, E. A. Risley and G. W. Nuss, Proc. Soc. Exp. Biol. Med. 111, 544 (1962) was employed with measurement taken four hours after the drug was administered. The local administration tests were carried out similarly except the irritant (carrageenan) and the test compound were injected simultaneously at time zero. Tables XI and XII report the anti-inflammatory activity of the compounds tested as % difference in the edema or swelling as compared with the control. These Tables also give the response in many instances of more than one dose level of the same drug.

Assay [6] has as its system Candida albicans. The assay is described as follows: Antifungal activity, agar dilution method. It counts as cell-based, Candida albicans (ATCC No. 10231). As to the method: as §1, §2
Assay [7] has as its system Candida tropicalis. In words: Antifungal activity, agar dilution method. Type of assay: cell-based. As for the experimental part:
as §1, §2

Assay [8] deals with Trichophyton rubrum. The assay is described as follows: Antifungal activity, agar dilution method. Type of assay: cell-based, Trichophyton rubrum (ATCC No. 10218 and 14001). As to the method: as §1, §2
In assay [9] the test system is carrageenan rat paw edema. In words: Rat paw edema assay, local administration. Type of assay: in vivo. As to conditions: 100 mg/kg. As for the experimental part:
as §3

The structures appear in SMILES notation. A value given as a limit tells only on which side of the number the result lay.

For `Cc1ccc(-c2nc3ccccc3n3ccnc23)cc1` [Compound 134], the “D.H.S. (ED60)” value in [1] is on record as 7.2 mg/kg. In assay [2], the “HL(ED50)” value was 0.5 mg/kg. Besides, in [3], the “Parts Per Million Inhibitions, T. mentagrophytes” value is listed as 16 Parts Per Million. In addition, the “Parts Per Million Inhibitions, T. agelloi” value in assay [4] came out at 100 Parts Per Million. Also, the “Difference from Control” value in assay [5] (100 mg/kg) is recorded as -43%.
As for `Cc1ccccc1-c1nc2ccccc2n2ccnc12` [Compound 132], the “Parts Per Million Inhibitions, T. mentagrophytes” value in assay [3] stood at 100 Parts Per Million. Further, in [4], the “Parts Per Million Inhibitions, T. agelloi” value is reported as 100 Parts Per Million. For the same compound, in assay [5] (100 mg/kg), the “Difference from Control” value is on record as -76%.
Take `FC(F)(F)c1cccc(-c2nc3ccccc3n3ccnc23)c1` [Compound 136]: the “D.H.S. (ED60)” value in assay [1] was more than 50 mg/kg. Also, the “HL(ED50)” value in assay [2] amounted to 2.7 mg/kg. In addition, in assay [3], the “Parts Per Million Inhibitions, T. mentagrophytes” value is recorded as 100 Parts Per Million. The “Difference from Control” value in [5] (100 mg/kg) is -9%; in [5] (400 mg/kg) it was -25%.
As for `Cc1cccc(-c2nc3ccccc3n3ccnc23)c1` [Compound 133], in assay [1], the “D.H.S. (ED60)” value stood at 32 mg/kg. In assay [6], the “Parts Per Million Inhibitions, C. albicans” value is listed as 100 Parts Per Million. In addition, in assay [7], the “Parts Per Million Inhibitions, C. tropicalis” value was determined as 100 Parts Per Million. For the same compound, the “HL(ED50)” value in assay [2] came to 0.75 mg/kg. In [3], the “Parts Per Million Inhibitions, T. mentagrophytes” value stood at 8 Parts Per Million. For the same compound, in assay [8], the “Parts Per Million Inhibitions, T. rubrum” value turned out to be 8 Parts Per Million. In assay [4], the “Parts Per Million Inhibitions, T. agelloi” value is 8 Parts Per Million. Besides, the “Difference from Control” value in assay [5] (100 mg/kg) is given as -17%.
On to `c1ccc(Oc2ccc(-c3nc4ccccc4n4ccnc34)cc2)cc1` [Compound 219], for which, in [1] (Mus musculus, sc, read-out: D.H.S. (ED60)), the ED60 is less than 32 mg/kg.
In the case of `Clc1ccc(-c2nc3ccccc3n3ccnc23)cc1` [Compound 140], the “D.H.S. (ED60)” value in [1] turned out to be 1.15 mg/kg. The “HL(ED50)” value in assay [2] stood at 0.26 mg/kg. Moreover, in [8], the “Parts Per Million Inhibitions, T. rubrum” value was less than 0.5 Parts Per Million. The “Difference from Control” value in [5] (100 mg/kg) is listed as -35%. Moreover, the “% Difference from Control” value in assay [9] is given as -78%.
For `COc1cc(OC)cc(-c2nc3ccccc3n3ccnc23)c1` [Compound 139], the “D.H.S. (ED60)” value in [1] is reported as more than 50 mg/kg. For the same compound, the “HL(ED50)” value in [2] came to 3.0 mg/kg. For the same compound, the “Parts Per Million Inhibitions, T. mentagrophytes” value in assay [3] came to 100 Parts Per Million. The “Difference from Control” value is reported as -22% in [5] (100 mg/kg) and -25% in assay [5] (400 mg/kg).
On to `c1ccc(-c2ccc(-c3nc4ccccc4n4ccnc34)cc2)cc1` [Compound 135], for which the “D.H.S. (ED60)” value in assay [1] is given as 0.22 mg/kg. Moreover, the “HL(ED50)” value in assay [2] was 0.033 mg/kg. In assay [3], the “Parts Per Million Inhibitions, T. mentagrophytes” value is recorded as 100 Parts Per Million. In assay [4], the “Parts Per Million Inhibitions, T. agelloi” value worked out at 100 Parts Per Million.
On to `CC(C)(C)c1ccc(-c2nc3ccccc3n3ccnc23)cc1` [Compound 137], for which, in [1], the “D.H.S. (ED60)” value came out at 3.2 mg/kg. Besides, the “HL(ED50)” value in assay [2] is recorded as less than 0.125 mg/kg. Besides, in assay [3], the “Parts Per Million Inhibitions, T. mentagrophytes” value amounted to 100 Parts Per Million. In addition, the “Parts Per Million Inhibitions, T. agelloi” value in assay [4] is recorded as 100 Parts Per Million. Also, the “Difference from Control” value in [5] (100 mg/kg) is -26%.
As for `CCCCCCCCCC(=O)Oc1ccc(-c2nc3ccccc3n3ccnc23)cc1` [Compound 165], the “Parts Per Million Inhibitions, T. mentagrophytes” value in assay [3] was 100 Parts Per Million. In addition, the “Parts Per Million Inhibitions, T. rubrum” value in assay [8] is 100 Parts Per Million. For the same compound, the “Parts Per Million Inhibitions, T. agelloi” value in assay [4] turned out to be 100 Parts Per Million.
